# According to patent publication US20120283245A1, “AZABICYCLO[3.1.0]HEX-2-YL COMPOUNDS, A PROCESS FOR THEIR PREPARATION AND PHARMACEUTICAL COMPOSITIONS CONTAINING THEM” (LES LABORATOIRES SERVIER, priority 2009, published 2012):
# Structures can show the parent of a compound that is named as a salt.
# Molecular target: T1, type H3 central histamine receptors (Mus musculus, UniProt P58406)
# T1 construct: from tissue; host or cells: brain of living NMRI mice (oral dosing)
# Assay: Cerebral levels of Nτ-methylhistamine in the NMRI mouse (ex vivo)
# Details: 3 mg/kg PO, one hour after treatment, versus carrier controls
# Protocol: The purpose of this study, which was carried out in accordance with the method of Taylor et al. (Biochem. Pharm., 1992, 44, 1261-1267), is to evaluate the ex vivo activity of the compounds of the present invention as antagonists of type H3 central histamine receptors. […] An increase in the cerebral concentrations of N^τ-methylhistamine indicates an increase in to the turn-over of histamine by blockage of the type H3 central histamine receptors. NMRI mice (18-20 g) are treated with compounds of the present invention or with their carrier (20 ml/kg) by the oral route. One hour after the pharmacological treatment, the animals are sacrificed; the brains are removed, frozen in liquid nitrogen, weighed and homogenised in 0.1N HClO4 at 4° C. The homogenised products are centrifuged (15000 g, 17 mins., 4° C.). The supernatants are recovered and divided into aliquots. The aliquots are frozen in liquid nitrogen and stored at −80° C. until they are analysed. Determination of the cerebral levels of N^τ-methylhistamine is carried out by capillary electrophoresis. The tissue levels of N^τ-methylhistamine are expressed in μg/g of fresh brain. The comparison of the cerebral levels of N^τ-methylhistamine between animals treated with the carrier (controls) and animals treated with compounds of the present invention is carried out by single-factor variance analysis followed, if necessary, by a complementary analysis (Dunnett's test).
# T1 sequence (P58406 whole entry): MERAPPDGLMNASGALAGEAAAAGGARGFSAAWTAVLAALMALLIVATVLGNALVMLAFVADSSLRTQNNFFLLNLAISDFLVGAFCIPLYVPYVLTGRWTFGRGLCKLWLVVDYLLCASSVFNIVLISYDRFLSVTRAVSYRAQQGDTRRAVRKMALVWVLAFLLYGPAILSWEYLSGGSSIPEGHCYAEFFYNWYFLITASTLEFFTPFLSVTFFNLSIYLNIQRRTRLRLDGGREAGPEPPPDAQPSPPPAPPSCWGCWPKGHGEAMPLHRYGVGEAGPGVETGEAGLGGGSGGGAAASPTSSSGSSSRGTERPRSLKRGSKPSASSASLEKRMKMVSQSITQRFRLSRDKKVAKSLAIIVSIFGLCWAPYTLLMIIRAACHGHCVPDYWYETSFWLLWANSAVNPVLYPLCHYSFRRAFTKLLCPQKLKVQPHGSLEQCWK
row,SMILES,increase of endogenous cerebral concentrations of Nτ-methylhistamine
1,"CC(=O)Nc1ccc(OCCCN2CC[C@H]3C[C@H]32)cc1 (relative stereo) [Example 3, N-(4-{3-(cis-2-azabicyclo[3.1.0]hex-2-yl)propoxy}phenyl)acetamide hydrochloride]",+272%
2,"CC(=O)Nc1ccc(OCCN2CC[C@H]3C[C@H]32)cc1.Cl (relative stereo) [Example 4, N-(4-{2-(cis-2-azabicyclo[3.1.0]hex-2-yl)ethoxy}phenyl)acetamide hydrochloride]",+221%
3,"CCN(CC)C(=O)c1ccc(OCCCN2CC[C@H]3C[C@H]32)cc1.Cl (relative stereo) [Example 6, 4-{3-(cis-2-Azabicyclo[3.1.0]hex-2-yl)propoxy}-N,N-diethylbenzamide hydrochloride]",+225%
4,"CNC(=O)c1ccc(OCCCN2CC[C@H]3C[C@H]32)cc1.Cl (relative stereo) [Example 7, 4-{3-(cis-2-Azabicyclo[3.1.0]hex-2-yl)propoxy}-N-methylbenzamide hydrochloride]",+377%
5,"CC(=O)N(C)c1ccc(OCCCN2CC[C@H]3C[C@H]32)cc1.Cl (relative stereo) [Example 8, N-(4-{3-(cis-2-azabicyclo[3.1.0]hex-2-yl)propoxy}phenyl)-N-methyl-acetamide hydrochloride]",+276%
6,"COCC(=O)Nc1ccc(OCCCN2CC[C@H]3C[C@H]32)cc1 (relative stereo) [Example 9, N-(4-{3-(cis-2-azabicyclo[3.1.0]hex-2-yl)propoxy}phenyl)-2-methoxy-acetamide hydrochloride]",+250%

# Molecular target: T2, type H3 mouse histamine receptors (Mus musculus, UniProt P58406)
# T2 construct: expressed in transfected cells; host or cells: CHO cells
# Assay: Affinity for mouse H3 receptors (iodoproxyfan displacement, transfected CHO cells)
# Assay type: binding
# Details: mouse H3 receptors transfected into CHO cells, iodoproxyfan radioligand, 24 h at room temperature
# Protocol: The purpose is to measure the affinity of compounds of the present invention for type H3 mouse histamine receptors transfected into CHO cells. The compounds are incubated at different concentrations in the presence of transfected CHO cells, iodoproxyfan as a radiolabelled ligand which is specific for H3 receptors, and scintillant beads for 24 h at room temperature. At the end of the incubation, the displacement of the specific binding of the ligand by the compounds under test is measured, and the affinity constants of those compounds for mouse H3 receptors are determined
# T2 sequence (P58406 whole entry): as above
row,SMILES,Ki
1,"NC(=O)c1ccc(OCCCN2CC[C@H]3C[C@H]32)cc1 (racemic) [Example 1, 4-[3-(cis-2-Azabicyclo[3.1.0]hex-2-yl)propoxy]-benzamide hydrochloride]",2400 nM
2,"CC(=O)Nc1ccc(OCCCN2CC[C@H]3C[C@H]32)cc1 (racemic) [Example 3, N-(4-{3-(cis-2-azabicyclo[3.1.0]hex-2-yl)propoxy}phenyl)acetamide hydrochloride]",750 nM
3,"CN(C)C(=O)c1ccc(OCCCN2CC[C@H]3C[C@H]32)cc1 (racemic) [Example 5, 4-{3-(cis-2-Azabicyclo[3.1.0]hex-2-yl)propoxy}-N,N-dimethylbenzamide hydrochloride]",180 nM
4,"COCC(=O)Nc1ccc(OCCCN2CC[C@H]3C[C@H]32)cc1 (racemic) [Example 9, N-(4-{3-(cis-2-azabicyclo[3.1.0]hex-2-yl)propoxy}phenyl)-2-methoxy-acetamide hydrochloride]",390 nM
